Experimental data reported in PubChem BioAssay AID1963842 (Molecular Pharmacology Branch, DTP, NCI, 2024).

System: 677734-321-R-J1-PDC complex spheroid viability
Assay: Anticancer human tumor 677734-321-R-J1-PDC patient-derived soft tissue sarcoma cell line growth inhibition [POLQ]
Conditions: for IC50: curve of first compound; for viability, T/C: stronger effect = lower value
Method in brief: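 Complex spheroid viability model combining PDC tumour cells with endothelial (HUVEC) and MSC stromal cells. Novobiocin, ART-558 or RP6685 were tested singly and in combination with standard and investigational anticancer drugs. Each was titrated in half-log steps from near clinical Cmax, or from 10 microM where Cmax was unknown.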

[1] = second compound 0.0316 µM, first compound 0.0316 µM
[2] = second compound 0.0316 µM, first compound 0.1 µM
[3] = second compound 0.1 µM, first compound 0.0316 µM
[4] = second compound 0.1 µM, first compound 0.1 µM
[5] = second compound 0.316 µM, first compound 0.0316 µM
[6] = second compound 0.316 µM, first compound 0.1 µM
[7] = second compound 1 µM, first compound 0.0316 µM
[8] = second compound 1 µM, first compound 0.1 µM
[9] = second compound 3.16 µM, first compound 0.0316 µM
[10] = second compound 3.16 µM, first compound 0.1 µM
[11] = second compound 10 µM, first compound 0.0316 µM
[12] = second compound 10 µM, first compound 0.1 µM
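Also: spheroids exposed to compounds for one week.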
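For viability, T/C in this document: 100% = vehicle DMSO treated spheroids.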

O=c1[nH]cc(F)c(=O)[nH]1 + Cc1cccc(N(C)C(=O)C2C(O)CCN2c2nc(C)cc(C(F)(F)F)c2C#N)c1
IC50 (second compound 0.0316 µM): 5410 nM
IC50 (second compound 0.1 µM): 2940 nM
IC50 (second compound 0.316 µM): 3180 nM
IC50 (second compound 1 µM): 5910 nM
IC50 (second compound 3.16 µM): 6990 nM
IC50 (second compound 10 µM): 2890 nM
viability, T/C [1]: 104%
viability, T/C [2]: 110%
viability, T/C (second compound 0.0316 µM, first compound 0.316 µM): 111%
viability, T/C (second compound 0.0316 µM, first compound 1 µM): 93.9%
viability, T/C (second compound 0.0316 µM, first compound 3.16 µM): 54.6%
viability, T/C (second compound 0.0316 µM, first compound 10 µM): 44.9%
viability, T/C [3]: 107%
viability, T/C [4]: 103%
viability, T/C (second compound 0.1 µM, first compound 0.316 µM): 104%
viability, T/C (second compound 0.1 µM, first compound 1 µM): 76.5%
viability, T/C (second compound 0.1 µM, first compound 3.16 µM): 49.2%
viability, T/C (second compound 0.1 µM, first compound 10 µM): 44.8%
viability, T/C [5]: 112%
viability, T/C [6]: 108%
viability, T/C (second compound 0.316 µM, first compound 0.316 µM): 103%
viability, T/C (second compound 0.316 µM, first compound 1 µM): 97.7%
viability, T/C (second compound 0.316 µM, first compound 3.16 µM): 49.8%
viability, T/C (second compound 0.316 µM, first compound 10 µM): 47.2%
viability, T/C [7]: 104%
viability, T/C [8]: 106%
viability, T/C (second compound 1 µM, first compound 0.316 µM): 108%
viability, T/C (second compound 1 µM, first compound 1 µM): 90.9%
viability, T/C (second compound 1 µM, first compound 3.16 µM): 55.9%
viability, T/C (second compound 1 µM, first compound 10 µM): 45.1%
viability, T/C [9]: 108%
viability, T/C [10]: 105%
viability, T/C (second compound 3.16 µM, first compound 0.316 µM): 112%
viability, T/C (second compound 3.16 µM, first compound 1 µM): 101%
viability, T/C (second compound 3.16 µM, first compound 3.16 µM): 54.3%
viability, T/C (second compound 3.16 µM, first compound 10 µM): 48%
viability, T/C [11]: 104%
viability, T/C [12]: 99.3%
viability, T/C (second compound 10 µM, first compound 0.316 µM): 105%
viability, T/C (second compound 10 µM, first compound 1 µM): 83%
viability, T/C (second compound 10 µM, first compound 3.16 µM): 47.6%
viability, T/C (second compound 10 µM, first compound 10 µM): 46.8%

CC(=O)O[C@H]1C(=O)[C@@]2(C)[C@H]([C@H](OC(=O)c3ccccc3)[C@]3(O)C[C@H](OC(=O)[C@H](O)[C@@H](NC(=O)c4ccccc4)c4ccccc4)C(C)=C1C3(C)C)[C@]1(OC(C)=O)CO[C@@H]1C[C@@H]2O + Cc1cccc(N(C)C(=O)C2C(O)CCN2c2nc(C)cc(C(F)(F)F)c2C#N)c1
IC50 (second compound 0.0316 µM): < 9.49 nM
IC50 (second compound 0.1 µM): < 9.49 nM
IC50 (second compound 0.316 µM): < 9.49 nM
IC50 (second compound 1 µM): < 9.49 nM
IC50 (second compound 3.16 µM): < 9.49 nM
IC50 (second compound 10 µM): < 9.49 nM
viability, T/C (second compound 0.0316 µM, first compound 0.00949 µM): 21.8%
viability, T/C (second compound 0.0316 µM, first compound 0.03 µM): 14.4%
viability, T/C (second compound 0.0316 µM, first compound 0.0949 µM): 14.1%
viability, T/C (second compound 0.0316 µM, first compound 0.3 µM): 12.6%
viability, T/C (second compound 0.0316 µM, first compound 0.949 µM): 10.9%
viability, T/C (second compound 0.0316 µM, first compound 3 µM): 12.8%
viability, T/C (second compound 0.1 µM, first compound 0.00949 µM): 23.7%
viability, T/C (second compound 0.1 µM, first compound 0.03 µM): 16.1%
viability, T/C (second compound 0.1 µM, first compound 0.0949 µM): 13.6%
viability, T/C (second compound 0.1 µM, first compound 0.3 µM): 13.3%
viability, T/C (second compound 0.1 µM, first compound 0.949 µM): 13.5%
viability, T/C (second compound 0.1 µM, first compound 3 µM): 15.6%
viability, T/C (second compound 0.316 µM, first compound 0.00949 µM): 22.8%
viability, T/C (second compound 0.316 µM, first compound 0.03 µM): 18.9%
viability, T/C (second compound 0.316 µM, first compound 0.0949 µM): 12.4%
viability, T/C (second compound 0.316 µM, first compound 0.3 µM): 10.3%
viability, T/C (second compound 0.316 µM, first compound 0.949 µM): 12.4%
viability, T/C (second compound 0.316 µM, first compound 3 µM): 13.9%
viability, T/C (second compound 1 µM, first compound 0.00949 µM): 26%
viability, T/C (second compound 1 µM, first compound 0.03 µM): 23.1%
viability, T/C (second compound 1 µM, first compound 0.0949 µM): 14%
viability, T/C (second compound 1 µM, first compound 0.3 µM): 11.4%
viability, T/C (second compound 1 µM, first compound 0.949 µM): 9.6%
viability, T/C (second compound 1 µM, first compound 3 µM): 9.4%
viability, T/C (second compound 3.16 µM, first compound 0.00949 µM): 23.6%
viability, T/C (second compound 3.16 µM, first compound 0.03 µM): 13.4%
viability, T/C (second compound 3.16 µM, first compound 0.0949 µM): 12.2%
viability, T/C (second compound 3.16 µM, first compound 0.3 µM): 12.8%
viability, T/C (second compound 3.16 µM, first compound 0.949 µM): 12%
viability, T/C (second compound 3.16 µM, first compound 3 µM): 14.6%
viability, T/C (second compound 10 µM, first compound 0.00949 µM): 27.3%
viability, T/C (second compound 10 µM, first compound 0.03 µM): 12.4%
viability, T/C (second compound 10 µM, first compound 0.0949 µM): 12.2%
viability, T/C (second compound 10 µM, first compound 0.3 µM): 14.5%
viability, T/C (second compound 10 µM, first compound 0.949 µM): 11.3%
viability, T/C (second compound 10 µM, first compound 3 µM): 11.4%

CC[C@@]1(O)C(=O)OCc2c1cc1n(c2=O)Cc2cc3c(CN(C)C)c(O)ccc3nc2-1 + Nc1ccc(C#CCN(C(=O)Cc2ncc(C(F)(F)F)cc2C(F)(F)F)c2ccc(F)cc2)nn1
IC50 (second compound 0.0316 µM): 19.9 nM
IC50 (second compound 0.1 µM): 21.2 nM
IC50 (second compound 0.316 µM): 22.1 nM
IC50 (second compound 1 µM): 22.6 nM
IC50 (second compound 3.16 µM): 22.4 nM
IC50 (second compound 10 µM): 22.1 nM
viability, T/C (second compound 0.0316 µM, first compound 0.000316 µM): 108%
viability, T/C (second compound 0.0316 µM, first compound 0.001 µM): 115%
viability, T/C (second compound 0.0316 µM, first compound 0.00316 µM): 117%
viability, T/C (second compound 0.0316 µM, first compound 0.01 µM): 86.2%
viability, T/C [1]: 25.9%
viability, T/C [2]: 15.3%
viability, T/C (second compound 0.1 µM, first compound 0.000316 µM): 99.3%
viability, T/C (second compound 0.1 µM, first compound 0.001 µM): 97.7%
viability, T/C (second compound 0.1 µM, first compound 0.00316 µM): 99.2%
viability, T/C (second compound 0.1 µM, first compound 0.01 µM): 87.3%
viability, T/C [3]: 30.3%
viability, T/C [4]: 13%
viability, T/C (second compound 0.316 µM, first compound 0.000316 µM): 116%
viability, T/C (second compound 0.316 µM, first compound 0.001 µM): 105%
viability, T/C (second compound 0.316 µM, first compound 0.00316 µM): 90.4%
viability, T/C (second compound 0.316 µM, first compound 0.01 µM): 98.2%
viability, T/C [5]: 28.1%
viability, T/C [6]: 14.9%
viability, T/C (second compound 1 µM, first compound 0.000316 µM): 110%
viability, T/C (second compound 1 µM, first compound 0.001 µM): 99.9%
viability, T/C (second compound 1 µM, first compound 0.00316 µM): 103%
viability, T/C (second compound 1 µM, first compound 0.01 µM): 89.9%
viability, T/C [7]: 33.6%
viability, T/C [8]: 12.8%
viability, T/C (second compound 3.16 µM, first compound 0.000316 µM): 102%
viability, T/C (second compound 3.16 µM, first compound 0.001 µM): 102%
viability, T/C (second compound 3.16 µM, first compound 0.00316 µM): 104%
viability, T/C (second compound 3.16 µM, first compound 0.01 µM): 102%
viability, T/C [9]: 27.7%
viability, T/C [10]: 17.6%
viability, T/C (second compound 10 µM, first compound 0.000316 µM): 135%
viability, T/C (second compound 10 µM, first compound 0.001 µM): 106%
viability, T/C (second compound 10 µM, first compound 0.00316 µM): 92.5%
viability, T/C (second compound 10 µM, first compound 0.01 µM): 83.7%
viability, T/C [11]: 29.4%
viability, T/C [12]: 13.8%
